Active and inactive are the calls of the source.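 Rule for the calls: active = fitted EC50 no more than ten times the top tested dose; inconclusive = flat fit with 30% to 70% inhibition, or a poor fit; inactive = EC50 beyond ten times the top tested dose.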
Test system: S. cerevisiae CDRE-lacZ reporter, CaCl2, luminescence
Assay: calcineurin pathway inhibitors in yeast reporter, dose response, S. cerevisiae, CDRE-lacZ, luminescence, secondary (AID 2388)

| SMILES | EC50 |
| --- | --- |
| CC1CCC(C(C)C)C(OC(=O)Cn2c(-c3ccc(Br)cc3)[n+](C)c3ccccc32)C1 (configuration not stated) | > 18 µM (inactive) |
| NC(=NCCCCCCN=C(N)/N=C(\N)Nc1ccc(Cl)cc1)/N=C(\N)Nc1ccc(Cl)cc1 | > 18 µM (inactive) |

Reference: PubChem BioAssay AID2388 (Broad Institute, 2010)
